These results are taken from patent US12116594B2, “Methods for differentiating cells” (BOND UNIVERSITY LTD, priority 2015, dated 2024).

Entries after “also recorded” stand apart in the source; their conditions may differ.

This assay deals with Mell hESC. The experiment in a line: Differentiation assay for small molecule differentiation of hESC to hESC-RPEC; ANEB outgrowths scored for % putative RPE morphology at day 14. The format is cell-based, human. The text has this: FIG. 31 Establishment of differentiation conditions for hESC-RPEC differentiation using small molecules. (A): Differentiation assay for small molecule differentiation of Mell hESC to hESC-RPEC. […] (B): Optimal ANEB size determined between 1000-1500 cells/body. (C): Optimal window for both seeding ANEBs and switching to RDM is day 6. […] For each experiment, ANEB outgrowths were scored for % putative RPE morphology at day 14. Differentiation is represented as heat map scores (0=0%, 1=5-10%, 2=10-15%, 3=15-25%, 5=25-40%, 6=40-55%, 7=55-70%, 8=80+%).
HESC cultures were prepared for differentiation by supplementing mTeSR™1 with 10 uM Y-27632 (Rock inhibitor) (Sigma) for at least one hour prior to single cell dissociation with TrypLE™ Express (Gibco), counted and replated onto plates pre-coated with reduced growth factor Matrigel™ (RGFMG) (Corning) at high density (150,000 cells/cm2) in mTeSR™1 medium, supplemented with 10 uM Y-27632 and cultured overnight. The following day, cultures were refed fresh mTeSR™1 medium, without Rock inhibitor cultured for another 18-48 hours, or until cell cultures were nearly confluent (FIG. 2). Subsequently, cells were cultured in Primary Differentiation Medium (PDM) (containing 100 nM LDN193189, 10 uM SB431542, 5 uM CKI-7, and supplemented with 10 mM Nicotinamide) for 45 hours, before being further supplemented with 10 uM Rock inhibitor for an hour (FIG. 3 A). Differentiating cultures were single cell dissociated using TryPLE™ Express, re-suspended in PDM supplemented with 10 mM Nicotinamide and 10 uM Rock inhibitor, and formed into 3D cell aggregates of approximately 1500 cells/aggregate, using the AggreWellP400 (StemCell Technologies) (FIG. 3B), and cultured overnight. After 12-18 hours, the cell aggregates. The cell aggregates were cultured in suspension in Corning® Costar® Ultra-Low attachment 6-well plates (Corning) in primary differentiation medium (with 10 mM Nicotinamide), until day 4 or day 6, to differentiate as generate 3D aggregates of hESC-derived eyefield cells (ANEBs) to eyefield progenitor cells (FIG. 4A). At day 6, ANEBs were re-seeded onto RGFMG coated plates in RPEC Differentiation Medium (RDM) (containing 250 nM IDE-2 and 3 uM CHIR99021). ANEBs attached to the plate and the outgrowths were assessed for the appearance of immature RPE-like morphology (FIG. 8). ANEB outgrowths were cultured in RDM until day 14. Some putative hESC-RPEC cultures were maintained in an undisrupted form on the plates, while others were single cell dissociated and re-plated onto RGFMG at 150,000 cells/cm2 and cultured in Base Medium 2 (BM2), or RPEC Culture Medium (RCM), both supplemented with 10 uM Y-27632 until medium change the following day. hESC-RPEC cultures that are not dissociated may be maintained in BM2, without further supplementation, or in RMM, to generate mature hESC-RPECs within 21-28 days of the differentiation process (FIG. 9).
The hESC methods of the invention relating to the differentiation of human SCs towards the eyefield progenitor cells, that are Rax+ on day 4 and day 6 (FIG. 6), which has been confirmed by qRT-PCR expression of Rax, LHX2, Pax6(−5a) (FIG. 7). […] FIG. 31 A is a summary of experimental conditions designed to test the ability of each molecule to contribute to efficient RPEC differentiation within a 14-day period. Primary differentiation was from day 0-day 6, followed by secondary differentiation, or RPE differentiation, from day 6 to day 14. Briefly, hESC differentiation to RPE in the absence of LDN is low. […] The role of CKI-7 on differentiation efficiency was tested in combination with a variety of combinations to determine the optimal signalling requirements for differentiation. The small molecule IDE-2 was tested for its ability to functionally replace Activin A in a context for which it had not previously been tested. […] Although the effect of NIC on hESC-RPEC differentiation was positive during differentiation towards to the eyefield, but negative after. […]

[1] abbreviates: molecule used in primary differentiation conditions, day 0-day 6.
[2] abbreviates: molecule used in secondary (RPE) differentiation conditions, day 6 to day 14.

For `NCCNS(=O)(=O)c1ccc(Cl)c2ccncc12` [CKI-7], under setting [1], the “hESC-RPEC differentiation (% putative RPE morphology at day 14)” value is reported as “greatly enhanced; also recorded: further enhanced”.

In the case of `O=C(O)CCCCCC(=O)NN=C1CCCC1` [IDE-2], the “hESC-RPEC differentiation by day 14” value (combined use of IDE-2 with the GSK3b inhibitor, secondary differentiation day 6 to day 14) was “highest degree of hESC-RPEC differentiation”. Besides, the “hESC-RPEC differentiation (% putative RPE morphology at day 14)” value under setting [2] is “enhances RPEC differentiation”. As for `NC(=O)c1cccnc1` [NIC, nicotinamide], the “hESC-RPEC differentiation (% putative RPE morphology at day 14)” value under setting [1] was “positive” and the “hESC-RPEC differentiation (% putative RPE morphology at day 14)” value under setting [2] was “suppresses RPEC differentiation; also recorded: negative”. Turning to `c1ccc2c(-c3cnn4cc(-c5ccc(N6CCNCC6)cc5)cnc34)ccnc2c1` [LDN, LDN193189], the “hESC-RPEC differentiation (% putative RPE morphology at day 14)” value under setting [1] is listed as “improved differentiation”. `Cc1c[nH]c(-c2cnc(NCCNc3ccc(C#N)cn3)nc2-c2ccc(Cl)cc2Cl)n1` [CHIR, CHIR99021]: under setting [2], the “hESC-RPEC differentiation (% putative RPE morphology at day 14)” value is “essential for highly efficient RPEC differentiation”.
